Measured values published in BigSolDB 2.1.

N[C@@H](C(=O)N[C@@H]1C(=O)N2C(C(=O)O)=C(Cl)CS[C@H]12)c1ccccc1.O
solubility (mole fraction)
Settings	278.15 K	283.15 K	288.15 K	293.15 K	298.15 K	303.15 K	308.15 K	313.15 K
in acetone	2.05e-05	2.67e-05	3.43e-05	4.35e-05	5.48e-05	6.84e-05	8.57e-05	0.000108
in ethanol	2.36e-05	3.05e-05	3.86e-05	4.76e-05	5.71e-05	6.72e-05	7.92e-05	9.55e-05
in methanol	8.68e-05	0.000101	0.000115	0.000129	0.000145	0.000163	0.000186	0.000214
in water	0.000387	0.000401	0.000417	0.000445	0.000476	0.000511	0.000551	0.000602
